The source made the active and inactive calls. No cut-off for these calls is given here. Where a SMILES comes first, the peptide text is derived from it. Bridges are numbered along the chain shown (N, C = ends).
How the values were obtained:
Melanocortin receptor 3 = Melanocortin receptor 3 (Homo sapiens, UniProt P41968); experiment: Displacement of [125I]-NDP-alpha-MSH from human MC3R expressed in HEK293 cells by Topcount beta counter analysis; assay type: cell-based
Melanocortin receptor 5 = Melanocortin receptor 5 (Homo sapiens, UniProt P33032); experiment: Displacement of [125I]-NDP-alpha-MSH from human MC5R expressed in CHO cells by Topcount beta counter analysis; assay type: cell-based
Melanocortin receptor 4 [1] = biological target: T1, Melanocortin receptor 4 (Homo sapiens, UniProt P32245); experiment: Displacement of [125I]-NDP-alpha-MSH from human MC4R expressed in CHO cells by Topcount beta counter analysis; assay type: cell-based
[2] = biological target: Melanocyte-stimulating hormone receptor (Homo sapiens, UniProt Q01726); experiment: Displacement of [125I]-NDP-alpha-MSH from human MC1R expressed in CHO cells by Topcount beta counter analysis; assay type: cell-based
[3] = biological target: T2, Type-1 angiotensin II receptor (Homo sapiens) (UniProt P30556); experiment: Inhibition of human AT1R expressed in CHO cells at 50 uM by Topcount beta counter analysis relative to control; assay type: cell-based
T2 sequence (whole entry): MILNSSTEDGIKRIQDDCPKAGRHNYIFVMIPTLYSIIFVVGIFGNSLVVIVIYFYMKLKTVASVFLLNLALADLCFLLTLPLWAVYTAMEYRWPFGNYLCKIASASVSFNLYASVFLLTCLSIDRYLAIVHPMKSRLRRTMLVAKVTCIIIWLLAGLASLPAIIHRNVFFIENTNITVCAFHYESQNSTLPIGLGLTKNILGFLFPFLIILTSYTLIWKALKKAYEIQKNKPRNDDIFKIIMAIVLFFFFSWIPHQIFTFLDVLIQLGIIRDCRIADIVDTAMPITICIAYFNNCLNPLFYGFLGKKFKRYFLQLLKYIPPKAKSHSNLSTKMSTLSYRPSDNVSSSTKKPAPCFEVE

Melanocortin receptor 4 [4] = biological target: T1, Melanocortin receptor 4; experiment: Antagonist activity at human MC4R in HEK293SL cells assessed as Gs activation at 30 uM incubated for 30 mins in presence of alpha-MSH by BRET assay; assay type: functional, cell-based; conditions: filed as antagonist
Homo sapiens [5] = species on record: Homo sapiens; experiment: Selectivity ratio of Ki for human MC1R expressed in CHO cells to Ki for human MC4R expressed in CHO cells; assay type: cell-based
Melanocortin receptor 4 [6] = biological target: T1, Melanocortin receptor 4; experiment: Antagonist activity at human MC4R in HEK293SL cells assessed as Gs activation incubated for 30 mins in presence of NDP-alpha-MSH by BRET assay; assay type: functional, cell-based; conditions: filed as antagonist
Homo sapiens [7] = species on record: Homo sapiens; experiment: Selectivity ratio of Ki for human […] expressed in CHO cells to Ki for human MC4R expressed in CHO cells; assay type: cell-based
Melanocortin receptor 4 [8] = biological target: T1, Melanocortin receptor 4; experiment: Antagonist activity at human MC4R in HEK293SL cells assessed as beta-arrestin2 activation incubated for 30 mins in presence of NDP-alpha-MSH by BRET assay; assay type: functional, cell-based; conditions: filed as antagonist
Melanocortin receptor 4 [9] = biological target: T1, Melanocortin receptor 4; experiment: Antagonist activity at human MC4R in HEK293SL cells assessed as beta-arrestin2 activation incubated for 30 mins in presence of alpha-MSH by BRET assay; assay type: functional, cell-based; conditions: filed as antagonist
Melanocortin receptor 4 [10] = biological target: T1, Melanocortin receptor 4; experiment: Antagonist activity at human MC4R in HEK293SL cells assessed as G15 activation incubated for 30 mins in presence of NDP-alpha-MSH by BRET assay; assay type: functional, cell-based; conditions: filed as antagonist
Melanocortin receptor 4 [11] = biological target: T1, Melanocortin receptor 4; experiment: Antagonist activity at human MC4R in HEK293SL cells assessed as Gs activation incubated for 30 mins in presence of alpha-MSH by BRET assay; assay type: functional, cell-based; conditions: filed as antagonist
Melanocortin receptor 4 [12] = biological target: T1, Melanocortin receptor 4; experiment: Antagonist activity at human MC4R in HEK293SL cells assessed as G15 activation incubated for 30 mins in presence of alpha-MSH by BRET assay; assay type: functional, cell-based; conditions: filed as antagonist
Homo sapiens [13] = species on record: Homo sapiens; experiment: Selectivity ratio of Ki for human MC3R expressed in HEK293 cells to Ki for human MC4R expressed in CHO cells; assay type: cell-based

Sequence of Melanocortin receptor 5 (P33032 whole entry): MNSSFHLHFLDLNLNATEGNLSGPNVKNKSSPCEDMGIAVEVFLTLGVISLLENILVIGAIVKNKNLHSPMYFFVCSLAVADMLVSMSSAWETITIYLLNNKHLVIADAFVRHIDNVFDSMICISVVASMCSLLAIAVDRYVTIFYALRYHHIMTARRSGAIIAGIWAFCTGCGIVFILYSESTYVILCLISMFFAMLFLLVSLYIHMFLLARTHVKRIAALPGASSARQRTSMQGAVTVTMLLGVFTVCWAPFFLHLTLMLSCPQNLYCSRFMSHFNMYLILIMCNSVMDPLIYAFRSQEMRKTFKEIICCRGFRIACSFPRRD
Sequence of Melanocyte-stimulating hormone receptor (Q01726 whole entry): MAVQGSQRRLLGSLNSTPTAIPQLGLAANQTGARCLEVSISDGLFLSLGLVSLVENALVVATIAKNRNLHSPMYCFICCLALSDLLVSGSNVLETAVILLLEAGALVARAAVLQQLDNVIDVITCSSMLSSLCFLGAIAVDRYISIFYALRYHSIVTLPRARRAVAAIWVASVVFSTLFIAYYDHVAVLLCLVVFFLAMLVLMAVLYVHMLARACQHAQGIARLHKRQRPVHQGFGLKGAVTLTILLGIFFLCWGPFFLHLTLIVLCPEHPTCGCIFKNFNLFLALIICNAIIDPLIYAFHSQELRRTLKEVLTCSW
T1 sequence (P32245 whole entry): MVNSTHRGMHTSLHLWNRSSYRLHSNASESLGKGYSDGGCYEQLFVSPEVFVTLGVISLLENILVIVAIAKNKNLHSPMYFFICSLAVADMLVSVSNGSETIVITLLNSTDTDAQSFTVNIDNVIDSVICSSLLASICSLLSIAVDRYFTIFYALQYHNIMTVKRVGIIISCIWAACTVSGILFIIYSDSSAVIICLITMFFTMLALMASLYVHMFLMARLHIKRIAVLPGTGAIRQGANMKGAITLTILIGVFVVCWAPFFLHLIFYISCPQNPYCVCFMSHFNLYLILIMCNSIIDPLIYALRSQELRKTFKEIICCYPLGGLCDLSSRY
Sequence of Melanocortin receptor 3 (P41968 whole entry): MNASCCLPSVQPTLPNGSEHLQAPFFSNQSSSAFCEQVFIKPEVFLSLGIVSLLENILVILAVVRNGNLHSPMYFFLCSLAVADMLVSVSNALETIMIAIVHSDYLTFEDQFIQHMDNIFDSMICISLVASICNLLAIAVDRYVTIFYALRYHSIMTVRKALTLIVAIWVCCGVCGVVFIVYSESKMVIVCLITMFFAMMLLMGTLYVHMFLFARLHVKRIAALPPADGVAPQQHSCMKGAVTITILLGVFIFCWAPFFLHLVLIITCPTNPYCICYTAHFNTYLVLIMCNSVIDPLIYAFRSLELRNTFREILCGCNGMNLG

Row | Molecule | Ki (Melanocortin receptor 3; read-out: pKi (converted)) | Ki (Melanocortin receptor 5; read-out: pKi (converted)) | Ki (Melanocortin receptor 4 [1]; read-out: pKi (converted)) | Ki ([2]; read-out: pKi (converted)) | Ki (Melanocortin receptor 3; read-out: Ki) | inhibition [3] | Activity (Melanocortin receptor 4 [4]) | Ratio Ki (Homo sapiens [5]) | Kb (Melanocortin receptor 4 [6]) | Ratio Ki (Homo sapiens [7]) | Kb (Melanocortin receptor 4 [8]) | Kb (Melanocortin receptor 4 [9]) | Kb (Melanocortin receptor 4 [10]) | Kb (Melanocortin receptor 4 [11]) | Kb (Melanocortin receptor 4 [12]) | Ki (Melanocortin receptor 5; read-out: Ki) | Ki (Melanocortin receptor 4 [1]; read-out: Ki) | Ki ([2]; read-out: Ki) | Ratio Ki (Homo sapiens [13])
1 | CC(C)C[C@@H]1NC(=O)[C@H](CCC(N)=O)NC(=O)[C@@H](NC(=O)[C@H](Cc2ccc(O)cc2)NC(=O)[C@H](Cc2c[nH]cn2)NC(=O)[C@H](Cc2ccccc2)NC(=O)[C@@H](N)CC(C)C)CSSC[C@@H](C(=O)N[C@@H](CCC(N)=O)C(=O)N[C@@H](Cc2ccccc2)C(=O)N[C@@H](CCCCN)C(=O)N[C@@H](CC(C)C)C(=O)N[C@@H](CCCNC(=N)N)C(=O)N2CCC[C@H]2C(=O)N2CCC[C@H]2C(=O)O)NC(=O)[C@H](Cc2ccccc2)NC(=O)[C@H](CCCCN)NC(=O)CNC(=O)[C@H](CCCCN)NC(=O)[C@H](Cc2ccccc2)NC(=O)CNC(=O)[C@@H]2CCCN2C(=O)[C@@H]2CCCN2C(=O)[C@H](CC(C)C)NC(=O)[C@H](CCC(N)=O)NC1=O (H-LFHYCQLQLPPGFKGKFCQFKLRPP-OH; disulfide 5-18) | 275 nM | 117 nM | 93.3 nM | 398 nM | – | – | – | – | – | – | – | – | – | – | – | – | – | – | –
2 | CC(C)C[C@H](NC(=O)[C@H](CCCCN)NC(=O)[C@H](Cc1ccccc1)NC(=O)[C@H](CCC(N)=O)NC(=O)[C@@H]1CSSC[C@H](NC(=O)[C@H](Cc2ccc(O)cc2)NC(=O)[C@H](Cc2c[nH]cn2)NC(=O)[C@H](Cc2ccccc2)NC(=O)[C@@H](N)CC(C)C)C(=O)N[C@@H](CCC(N)=O)C(=O)N[C@@H](CO)C(=O)N[C@@H](CCC(N)=O)C(=O)N[C@@H](CO)C(=O)N2CCC[C@H]2C(=O)N2CCC[C@H]2C(=O)NCC(=O)N[C@@H](Cc2ccccc2)C(=O)N[C@@H](CCCCN)C(=O)NCC(=O)N[C@@H](CCCCN)C(=O)N[C@@H](Cc2ccccc2)C(=O)N1)C(=O)N[C@@H](CCCNC(=N)N)C(=O)N1CCC[C@H]1C(=O)N1CCC[C@H]1C(=O)O (H-LFHYCQSQSPPGFKGKFCQFKLRPP-OH; disulfide 5-18) | 224 nM | 229 nM | 67.6 nM | 776 nM | – | – | – | – | – | – | – | – | – | – | – | – | – | – | –
3 | CC(C)C[C@H](NC(=O)[C@H](CCCCN)NC(=O)[C@H](Cc1ccccc1)NC(=O)[C@H](CCC(N)=O)NC(=O)[C@@H]1CSSC[C@H](NC(=O)[C@H](Cc2ccc(O)cc2)NC(=O)[C@H](Cc2c[nH]cn2)NC(=O)[C@H](Cc2ccccc2)NC(=O)[C@@H](N)CC(C)C)C(=O)N[C@@H](CCC(N)=O)C(=O)N[C@@H](C(C)C)C(=O)N[C@@H](CCC(N)=O)C(=O)N[C@@H](C(C)C)C(=O)N2CCC[C@H]2C(=O)N2CCC[C@H]2C(=O)NCC(=O)N[C@@H](Cc2ccccc2)C(=O)N[C@@H](CCCCN)C(=O)NCC(=O)N[C@@H](CCCCN)C(=O)N[C@@H](Cc2ccccc2)C(=O)N1)C(=O)N[C@@H](CCCNC(=N)N)C(=O)N1CCC[C@H]1C(=O)N1CCC[C@H]1C(=O)O (H-LFHYCQVQVPPGFKGKFCQFKLRPP-OH; disulfide 5-18) | 282 nM | 224 nM | 60.3 nM | 724 nM | – | – | – | – | – | – | – | – | – | – | – | – | – | – | –
4 | H-LFHYQQKQKPPGFKGKFQQFKLRPP-OH | 38.9 nM | 182 nM | 13.5 nM | 182 nM | 41 nM | 77% | Active | 13 | 32300 nM | 13 | 3800 nM | 33000 nM | 3000 nM | 28000 nM | 6000 nM | 195 nM | 15 nM | 197 nM | 3

Reference: ChEMBL document CHEMBL5113520, “From a Cone Snail Toxin to a Competitive MC4R Antagonist” (J Med Chem, 2022)
